Patent US11234960B2, “Compositions and methods for improving mitochondrial function and treating neurodegenerative diseases and cognitive disorders” (Amazentis SA, priority 2010, dated 2022)

What was measured:
[1] = tested on: aged C. elegans (wild-type Bristol N2); test: Oxygen consumption (Seahorse XF24) in aged C. elegans; format: in vivo; conditions: 10-day-old worms, 30 μM urolithin A in 0.1% DMSO, 30 minute period (FIGS. 25A, 25B)
Description: C. elegans strains were cultured at 20° C. on nematode growth media (NGM) agar plates seeded with E. coli strain OP50. Strain used was wild-type Bristol N2 provided by the Caenorhabditis Genetics Center (University of Minnesota). Urolithin A was dissolved in DMSO. Animals were exposed to compounds from eggs on plates seeded with live OP50 bacteria. Control plates were prepared with the corresponding concentration of DMSO (0.1%).
Measurement of oxygen consumption is a direct indicator of mitochondrial activity. The effect of urolithin A on mitochondrial activity in aged C. elegans (10 days old) was assessed by treating C. elegans with urolithin A for 10 days of adulthood, at which time oxygen consumption was measured using the Seahorse XF24 equipment (Seahorse Bioscience Inc., North Billerica, Mass.). 250 ten-day-old C. elegans were used per condition. […] Worms were transferred into 24-well standard Seahorse plates (#100777-004) (50 worms per well) and oxygen consumption was measured. The basal oxygen consumption of the worms was first measured over 30 minutes at 5 minute intervals (0 min, 5 min, 15 min, 20 min, 25 min and 30 min) with 5 replicates per interval. Respiration rates were normalized to the exact number of worms per well determined after the completion of the experiment using a stereomicroscope. […]

[2] = tested on: AMP-activated protein kinase (AMPK); test: AMPK phosphorylation (Western blot) in C2C12 myotubes; format: cell-based; conditions: 1 hr, 50 μM, relative to control treated cells (FIG. 5A)
Description: C2C12 myoblasts were differentiated to myotubes by serum deprivation for 4 days (Canto et al. (2009) Nature. 458:1056-60). Myotubes were incubated for 1 hr with resveratrol (RSV), which served as a positive control, or ellagic acid (EA) or urolithin A (UL) at a final concentration of 50 μM (all dissolved in DMSO, final concentration 0.1%). DMSO was used as a control (final concentration of DMSO: 0.1%). At the end of the treatment, cells were washed 3 times with PBS, and AMP-activated protein kinase (AMPK) was assessed by Western blot. Following compound treatment, C2C12 cells were lysed in buffer containing phosphatase inhibitors, and protein concentration was determined using a standard Bradford assay. The equivalent of 25 μg of protein was used for separation on a 10% SDS-PAGE gel and subsequently transferred by standard Western blotting procedures. Antibodies directed to AMPK (Cell Signaling) and phosphorylated AMPK (P-AMPK, Cell Signaling) were used for detection.

normal mice = test: Contextual fear conditioning (contextual memory) in normal mice; format: in vivo; conditions: punicalagin approx. 90 mg/kg/day 3 months; for contextual memory, freezing 24 hours after training: urolithin A approx. 55 mg/kg/day 2.5 months (FIG. 46); for memory retention, extinction of contextual memory over days 1-5: urolithin A approx. 55 mg/kg/day 2.5 months (FIG. 47)
Description: Beginning at 3 months of age, mice were either fed (i) a standard control diet such as AIN-93G; (ii) a diet containing punicalagin at a concentration of […], so as to deliver an approximate dose of 90 mg/kg/day (for a period of 3 months); or (iii) a diet containing urolithin A at a concentration of […], so as to deliver an approximate dose of 55 mg/kg/day (for a period of 2.5 months). Actual doses vary slightly depending on the food consumption of each individual mouse, as well as the weight of the mouse. Behavioral assessment of cognition was measured after this period.
To examine the effect of pomegranate-derived compounds on memory and cognition, mice were examined for improvements in contextual memory utilizing the contextual fear conditioning assay. Mice were trained in a fear conditioning chamber as described in Example 19.
During training, animals were placed into the chamber one at a time. After four minutes of exploration inside the chamber, one foot shock (2 seconds and 0.4 mA) was administered, followed by a second foot shock (2 seconds and 0.4 mA) one minute later. Thirty seconds after the second foot shock, the mouse was placed back into its home cage.
One day later, trained animals were returned to the chamber for a period of three minutes. During this period mice were monitored for their movement. The amount of time spent immobile or “frozen” was scored as a percentage of the total time (3 minutes) under observation. The time spent immobile is a measure of the strength of the memory of the mice to recall the context in which they were trained.
To determine the effect of these pomegranate-derived compounds on memory retention, normal mice fed either (i) a control diet; (ii) punicalagin (for a period of 3 months) or (iii) urolithin A (for a period of 2.5 months) were studied for their memory recall on days 1, 2, 3, 4 and 5 after the initial contextual fear training.
Animals were placed in the same chamber and context for 3 min daily (same time of day, however no shock this time) for the 5 days that followed the initial testing. Freezing behavior induced by the simple contextual recognition by the animals of the chamber, where they received the initial shock, was measured during each of these daily 3-minute periods. The ability to recognize this environment in the absence of the stimulus is a measurement of contextual memory.

SMILES	uncoupled (FCCP) respiration, oxygen consumption AUC [1]	levels of phosphorylation of AMPK (P-AMPK) [2]	contextual memory, freezing 24 hours after training (normal mice)	memory retention, extinction of contextual memory over days 1-5 (normal mice)
O=c1oc2cc(O)ccc2c2ccc(O)cc12 [urolithin A, 3,8-Dihydroxydibenzo-α-pyrone]	significantly increased uncoupled respiration	increased	significant improvements in contextual memory	improved memory retention
O=c1oc2c(O)c(O)cc3c(=O)oc4c(O)c(O)cc1c4c23 [ellagic acid]	–	increased	–	–
O=C1O[C@H]2[C@@H]3OC(=O)c4cc(O)c(O)c(O)c4-c4c(O)c(O)c5oc(=O)c6c(c(O)c(O)c7oc(=O)c4c5c76)-c4c(cc(O)c(O)c4O)C(=O)OC[C@H]3OC(O)[C@@H]2OC(=O)c2cc(O)c(O)c(O)c2-c2c1cc(O)c(O)c2O (mixture of isomers) [punicalagin, 2,3 hexahydroxydiphenoyl-4,6-gallagylglucose]	–	–	significant improvements in contextual memory	improved memory retention
